Reference: ChEMBL document CHEMBL3785053, “Synthesis and screening of ursolic acid-benzylidine derivatives as potential anti-cancer agents” (Eur J Med Chem, 2016)
The source made the active and inactive calls. The rule behind the calls is not given here.

Legend:
HCT-116 [1] = test: Induction of apoptosis in human HCT116 cells at 20 uM after 24 hrs by JC-1 staining-based fluorescence microscopy; assay type: functional, cell-based
[2] = Induction of apoptosis in human HCT116 cells assessed as upregulation of caspase-9 expression at 20 uM after 24 hrs by Western blotting method; assay type: functional, cell-based; conditions: HCT-116
[3] = Induction of apoptosis in human HCT116 cells assessed as upregulation of caspase-3 expression at 20 uM after 24 hrs by Western blotting method; assay type: functional, cell-based; conditions: HCT-116
[4] = Upregulation of Bax expression in human HCT116 cells at 20 uM after 24 hrs by Western blotting method; assay type: functional, cell-based; conditions: HCT-116
HCT-116 [5] = test: Induction of apoptosis in human HCT116 cells assessed as pycnosis at 10 to 20 uM after 24 hrs by acridine orange/ethidium bromide staining-based fluorescence microscopy; assay type: functional, cell-based
[6] = Cytotoxicity against human FR2 cells at 50 uM after 48 hrs by MTT assay; assay type: cell-based; conditions: read-out: GI
MCF7 [7] = test: Cytotoxicity against human MCF7 cells at 50 uM after 48 hrs by MTT assay; assay type: functional; conditions: MCF7, 48 h, read-out: GI
[8] = Downregulation of Bcl2 expression in human HCT116 cells at 20 uM after 24 hrs by Western blotting method; assay type: functional, cell-based; conditions: HCT-116
HCT-116 [9] = test: Induction of apoptosis in human HCT116 cells at 20 uM after 24 hrs by Hoechst 33258 staining-based fluorescence microscopy; assay type: functional, cell-based
[10] = Cytotoxicity against human THP1 cells after 48 hrs by MTT assay; assay type: functional, cell-based; conditions: THP-1, 48 h
[11] = Cytotoxicity against human THP1 cells at 50 uM after 48 hrs by MTT assay; assay type: functional; conditions: THP-1, 48 h, read-out: GI
HCT-116 [12] = test: Induction of cell cycle arrest in human HCT116 cells assessed as accumulation at G2 phase at 20 uM after 48 hrs by propidium iodide staining-based flow cytometry (reference value: 32.43%); assay type: functional
[13] = Cytotoxicity against human HCT116 cells after 48 hrs by MTT assay; assay type: functional, cell-based; conditions: HCT-116, 48 h
HCT-116 [14] = test: Induction of apoptosis in human HCT116 cells assessed as membrane blebbing at 10 to 20 uM after 24 hrs by acridine orange/ethidium bromide staining-based fluorescence microscopy; assay type: functional, cell-based
HCT-116 [15] = test: Induction of cell cycle arrest in human HCT116 cells assessed as accumulation at G1 phase at 20 uM after 48 hrs by propidium iodide staining-based flow cytometry (reference value: 41.51%); assay type: functional
A549 [16] = test: Cytotoxicity against human A549 cells after 48 hrs by MTT assay; assay type: functional, cell-based; conditions: A549, 48 h
A549 [17] = test: Cytotoxicity against human A549 cells at 50 uM after 48 hrs by MTT assay; assay type: functional; conditions: A549, 48 h, read-out: GI
HCT-116 [18] = test: Induction of apoptosis in human HCT116 cells assessed as cell budding at 10 to 20 uM after 24 hrs by acridine orange/ethidium bromide staining-based fluorescence microscopy; assay type: functional
[19] = Cytotoxicity against human FR2 cells after 48 hrs by MTT assay; assay type: cell-based; conditions: FR2, 48 h
[20] = Cytotoxicity against human HCT116 cells at 50 uM after 48 hrs by MTT assay; assay type: functional; conditions: HCT-116, 48 h, read-out: GI
MCF7 [21] = test: Cytotoxicity against human MCF7 cells after 48 hrs by MTT assay; assay type: functional, cell-based; conditions: MCF7, 48 h

In the case of `C[C@H]1[C@H](C)CC[C@]2(C(=O)O)CC[C@]3(C)C(=CC[C@@H]4[C@@]5(C)C/C(=C\c6cc(O)ccc6O)C(=O)C(C)(C)[C@@H]5CC[C@]43C)[C@H]12`, the Activity (HCT-116 [1]) is reported as “Active”, the Activity [2] is reported as “Active” and the Activity [3] is reported as “Active”. For the same compound, the Activity [4] was “Active”, the Activity (HCT-116 [5]) was “Active” and the inhibition at 48 h, 50 µM [6] was 91%. The inhibition of growth at 50 µM (MCF7 [7]) was 100%, the Activity [8] was “Active” and the Activity (HCT-116 [9]) was “Active”. For the same compound, the IC50 [10] was 900 nM, the inhibition of growth at 50 µM [11] was 94% and the Activity (HCT-116 [12]) was 11.65%. For the same compound, the IC50 [13] was < 100 nM, the Activity (HCT-116 [14]) was “Active” and the Activity (HCT-116 [15]) was 65.58%. The IC50 (A549 [16]) was 550 nM, the inhibition of growth at 50 µM (A549 [17]) was 93% and the Activity (HCT-116 [18]) was “Active”. The IC50 [19] was 800 nM, the inhibition of growth at 50 µM [20] was 99% and the IC50 (MCF7 [21]) was 5500 nM.
